# Measured values: publication PMC12647591, “Evolution, structure and function of L-cysteine desulfidase, an enzyme involved in sulfur metabolism in the methanogenic archeon Methanococcus maripaludis” (Communications Biology, 2025)
# Numbering of substitutions follows the chain as printed.
# B1: L-cysteine desulfidase CyuA from Methanococcus maripaludis (enzyme, Methanococcus maripaludis strain S2)
# chain: MDDYKRILITKILKNEVTEALGCTEVGLIGYAVSLCNISDPFSIEKIELTLNNGSFKNAYAVGVPNTKKYGILPAVVGGLLGDHKNKLLVFNGIKYSQKLEDFIKERLKIRVINSPLYCGVKIKDNSGNTFESLIKDNHLNVVIPKINNKLISEINGSEKEEYKNLELLDFLEYIDEIPEEIIQLVEKTIYTNNNLIKGDFLNFGNDCLSNMVNKTTSACNTRMIGENMPAMSVAKSGNMGIMATLPIIAYDYSNEQNQEKLIKSILLSVLVTIYATYKSSYLSSMCGCVSKGGMGAVIGLCYYKNGKNIKKLDSAARTFTANLPGIICDGGKVGCALKLASGCFAAYSSLFVDISYENGIVGKNFKECVENISEISKIMGDLDSDIVKIMSKKEI
# notes: L-cysteine desulfidase CyuA (MmCyuA), product of the mmp1468 gene of Methanococcus maripaludis strain S2 (NC_005791.1); synthetic codon-optimised gene in pET15b between NdeI and BamHI; theoretical mass of the monomer 43.7 kDa; the synthetic mmp1468 gene appears to have been cloned whole; Holo form carries one [4Fe-4S] cluster per monomer (Cys287, Cys289, Cys329, Cys336); in crystal 2 a [2Fe-2S] …
# Experiments:
# [1] = target: T1, L-cysteine desulfidase CyuA (MmCyuA) (Methanococcus maripaludis, UniProt Q6LX84, C289A); assay: crystal structure, […] Å (from cryoprotectant); format: binding
# T1 construct: gene MMP1468; holo-C289A-MmCyuA
# T1 sequence (Q6LX84 1-396 C289A): B1 chain with C289A
# [2] = target: T2, L-cysteine desulfidase CyuA (MmCyuA) (Methanococcus maripaludis, UniProt Q6LX84); assay: pyruvate formation assay ([…],4-dinitrophenylhydrazine), Lineweaver-Burk and Dixon plots; format: biochemical; design: gene MMP1468; holo-MmCyuA, recombinant, His-tag removed
# [3] = target: T2, L-cysteine desulfidase CyuA (MmCyuA); assay: crystal structure, […] Å (from crystallization solution); format: binding; design: gene MMP1468; [2Fe-2S]-MmCyuA, molecule A
# [4] = target: the molecule itself; assay: SEC-MALS; apo-MmCyuA (cluster removed with dithionite and EDTA), 100 uL at 2 mg/mL on Superdex 200 10/300 GL Increase, 50 mM Tris-HCl pH 8.5, 300 mM NaCl, 5 mM DTT
molecule,measurement,setting,value
"OCC(O)CO [GOL, glycerol]","crystal structure, 3.18 Å (from cryoprotectant)",[1],One terminal hydroxyl of the glycerol molecule was coordinated to that Fe atom
N[C@@H](CO)C(=O)O [L-serine],Ki,[2],15 ± 0.3 µM
O=S(=O)(O)CCN1CCOCC1 [2-(N-morpholino)ethanesulfonic acid],"crystal structure, 2.42 Å (from crystallization solution)",[3],sulfonate group of MES and the chloride ion were located at the same anion binding site
B1,stoichiometry N,[4],2
